Results taken from paper PMC7215935, “GM1 Oligosaccharide Crosses the Human Blood–Brain Barrier In Vitro by a Paracellular Route” (International Journal of Molecular Sciences, 2020).

Key:
[1] = Inverse transport (basolateral to apical, B → A) across hBLECs and efflux ratio; type: in vitro ADME, human; conditions: human, pH 7.4; 50 μM in basolateral compartment, 60 min (Figure 7)
Procedure: For the inverse transport study (related to basolateral → apical flux, B → A), 1.5 mL of 1 × 10^6 dpm of tritiated [^3H]OligoGM1 plus 50 μM OligoGM1 in RH buffer were added to an empty well of a 12-well plate (Figure S3c). Every 20 min up to 60 min, the hBLEC filter filled with 0.5 mL RH buffer was removed and replaced with a new filter with fresh RH buffer.
The apparent permeability, efflux ratio, and endothelial permeability were calculated to estimate the absorption processes of drugs, to predict implication of active transport in the process of drugs absorption, and to more accurately appreciate the transport of a drug across an endothelial barrier, respectively. Detailed information on the equations used to calculate the permeability parameters are reported in the Supplementary Information. […]
where (∆Q/∆t) (μmol/sec) is the rate of permeation (quantity per second) of a molecule across the cell layer, C0 (μmol/cm3) is the donor compartment concentration at time zero and S (cm2) is the area of […]
In the transwell insert system there are two compartments and, analyzing the absorption of a substance, the apparent permeability index can be obtained for the apical to basolateral transport, Papp A → B, and for the inverse, basolateral to apical transport Papp B → A.
To define Papp (1), the Fick's law could be used, which describes the transport of substances through a semipermeable membrane. Given that the initial concentration of the solute in the donor compartment is much higher than the one in the receiver compartment (equal to 0 at t0), and assuming that the solute equally partitions in the two compartments, for small variation of C0, it is possible to integrate and simplify the Fick’s equation to obtain as follows: […]
where ∆Q/∆t corresponds to the amount of solute that crosses the membrane over time, D is the diffusion coefficient of the substance in water, S is the membrane surface, h its thickness and C0 is the concentration of the solute which approximates the initial concentration C0.
The equation (2) can be rewritten as: […]

[2] = test system: human brain-like endothelial cells (hBLECs); experiment: Direct transport (apical to basolateral, A → B) across the hBLEC monolayer: Pe and Papp; type: in vitro ADME; conditions: 300 μM apical, after 240 min

Papp B→A at 60 min, 50 μM [1]: 8.7 ± 1.4 ×10⁻⁶ cm/s | concentration in receiving compartment [2]: ~ 25 μM | share of administered amount in receiving compartment ([2]; Transfectagro medium): 25%
Compound: CC(=O)NC1C(O)CC(OC2C(O)C(OC3C(CO)OC(O)C(O)C3O)OC(CO)C2OC2OC(CO)C(O)C(OC3OC(CO)C(O)C(O)C3O)C2NC(C)=O)(C(=O)O)OC1C(O)C(O)CO (stereo not drawn) [OligoGM1, β-Gal-(1-3)-β-GalNAc-(1-4)-[α-Neu5Ac-(2-3)]-β-Gal-(1-4)-β-Glc]
